Test results: USRE39591E1, “6-O-substituted ketolides having antibacterial activity” (Abbott Laboratories, priority 1996, dated 2007)

System: up to 32 different microorganisms
Assay: in vitro antibacterial activity (MIC), agar dilution on Brain Heart Infusion (BHI) agar with Steers replicator
Assay type: cell-based
Conditions: unit assumed
Procedure, shortened: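 Agar dilution, 12 plates/compound; inoc 1:100 (1:10 Micrococcus, Streptococcus); 35°-37° C, 20–24 h. Erythromycin A reference plate plus drug-free growth controls at start and end. Endpoint = no growth/slight haze/sparse colonies.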

| SMILES | MIC (organism code AA) | MIC (organism code BB) | MIC (organism code CC) | MIC (organism code DD) | MIC (organism code EE) | MIC (organism code FF) | MIC (organism code GG) | MIC (organism code HH) | MIC (organism code II) | MIC (organism code JJ) | MIC (organism code KK) | MIC (organism code LL) | MIC (organism code MM) | MIC (organism code NN) | MIC (organism code OO) | MIC (organism code PP) | MIC (organism code QQ) | MIC (organism code RR) | MIC (organism code SS) | MIC (organism code TT) | other results |
| --- | --- | --- | --- | --- | --- | --- | --- | --- | --- | --- | --- | --- | --- | --- | --- | --- | --- | --- | --- | --- | --- |
| CC[C@H]1OC(=O)[C@H](C)C(=O)[C@H](C)[C@@H](O[C@@H]2O[C@H](C)C[C@H](N(C)C)[C@H]2O)[C@@](C)(OCCNCCCc2cnc3ccccc3c2)C[C@@H](C)C(=O)[C@H](C)[C@H]2NC(=O)O[C@@]21C [Example 225, Compound of Formula (IX): L is CO, T is NH, R is —CH2CH2NHCH2CH2CH2-(3-quinolyl)] | 0.2 µg/mL | 0.39 µg/mL | > 100 µg/mL | 0.39 µg/mL | 0.39 µg/mL | 0.1 µg/mL | > 100 µg/mL | 0.2 µg/mL | 0.05 µg/mL | 0.01 µg/mL | 0.01 µg/mL | 0.01 µg/mL | > 100 µg/mL | 0.39 µg/mL | 0.02 µg/mL | 0.1 µg/mL | 12.5 µg/mL | 0.1 µg/mL | 12.5 µg/mL | > 100 µg/mL | MIC (organism code UU): 3.1 µg/mL; MIC (organism code VV): 0.2 µg/mL; MIC (organism code WW): 4 µg/mL; MIC (organism code XX): 0.03 µg/mL; MIC (organism code YY): 0.06 µg/mL; MIC (organism code ZZ): > 128 µg/mL; MIC (organism code ZZA): 2 µg/mL |
| CC[C@H]1OC(=O)[C@H](C)C(=O)[C@H](C)[C@@H](O[C@@H]2O[C@H](C)C[C@H](N(C)C)[C@H]2O)[C@@](C)(OCCNCc2cnc3ccccc3c2)C[C@@H](C)C(=O)[C@H](C)[C@H]2NC(=O)O[C@@]21C [Example 226, Compound of Formula (IX): L is CO, T is NH, R is —CH2CH2NHCH2(3-quinolyl)] | 0.1 µg/mL | 0.1 µg/mL | > 100 µg/mL | 0.1 µg/mL | 0.1 µg/mL | 0.1 µg/mL | > 100 µg/mL | 0.1 µg/mL | 0.05 µg/mL | 0.01 µg/mL | 0.02 µg/mL | 0.01 µg/mL | 6.2 µg/mL | 0.39 µg/mL | 0.02 µg/mL | 0.1 µg/mL | 6.2 µg/mL | 0.2 µg/mL | 12.5 µg/mL | > 100 µg/mL | MIC (organism code UU): 9.78 µg/mL; MIC (organism code VV): 0.05 µg/mL; MIC (organism code WW): 2 µg/mL; MIC (organism code XX): 0.03 µg/mL; MIC (organism code YY): 0.03 µg/mL; MIC (organism code ZZ): > 128 µg/mL; MIC (organism code ZZA): 2 µg/mL |
| CC[C@H]1OC(=O)[C@H](C)C(=O)[C@H](C)[C@@H](O[C@@H]2O[C@H](C)C[C@H](N(C)C)[C@H]2O)[C@@](C)(OCCNCc2ccc3ncccc3c2)C[C@@H](C)C(=O)[C@H](C)[C@H]2NC(=O)O[C@@]21C [Example 227, Compound of Formula (IX): L is CO, T is NH, R is —CH2CH2NHCH2(6-quinolyl)] | 0.2 µg/mL | 0.2 µg/mL | > 100 µg/mL | 0.2 µg/mL | 0.2 µg/mL | 0.2 µg/mL | > 100 µg/mL | 0.2 µg/mL | 0.05 µg/mL | ≤ 0.005 µg/mL | 0.05 µg/mL | 0.02 µg/mL | 50 µg/mL | 0.39 µg/mL | 0.05 µg/mL | 0.39 µg/mL | 6.2 µg/mL | 0.1 µg/mL | 25 µg/mL | > 100 µg/mL | MIC (organism code UU): 1.56 µg/mL; MIC (organism code VV): 0.05 µg/mL; MIC (organism code WW): 2 µg/mL; MIC (organism code XX): 0.03 µg/mL; MIC (organism code YY): 0.03 µg/mL; MIC (organism code ZZ): > 64 µg/mL; MIC (organism code ZZA): 2 µg/mL |
| CC[C@H]1OC(=O)[C@H](C)C(=O)[C@H](C)[C@@H](O[C@@H]2O[C@H](C)C[C@H](N(C)C)[C@H]2O)[C@@](C)(OCC=NOc2ccccc2)C[C@@H](C)C(=O)[C@H](C)[C@H]2NC(=O)O[C@@]21C [Example 228, Compound of Formula (IX): L is CO, T is NH, R is —CH2CH═NO(phenyl)] | 0.39 µg/mL | 0.78 µg/mL | > 100 µg/mL | 0.78 µg/mL | 0.78 µg/mL | 0.78 µg/mL | > 100 µg/mL | 0.78 µg/mL | 0.1 µg/mL | 0.02 µg/mL | ≤ 0.005 µg/mL | 0.01 µg/mL | 25 µg/mL | 0.78 µg/mL | 0.2 µg/mL | 0.39 µg/mL | > 100 µg/mL | 0.78 µg/mL | > 100 µg/mL | > 100 µg/mL | MIC (organism code UU): 3.1 µg/mL; MIC (organism code VV): 0.78 µg/mL; MIC (organism code WW): 8 µg/mL; MIC (organism code XX): 0.125 µg/mL; MIC (organism code YY): 0.125 µg/mL; MIC (organism code ZZ): > 128 µg/mL; MIC (organism code ZZA): 1 µg/mL |
| CC[C@H]1OC(=O)[C@H](C)C(=O)[C@H](C)[C@@H](O[C@@H]2O[C@H](C)C[C@H](N(C)C)[C@H]2O)[C@@](C)(OCC=NOCc2ccccc2)C[C@@H](C)C(=O)[C@H](C)[C@H]2NC(=O)O[C@@]21C [Example 229, Compound of Formula (IX): L is CO, T is NH, R is —CH2CH═NOCH2(phenyl)] | 0.2 µg/mL | 0.2 µg/mL | > 100 µg/mL | 0.2 µg/mL | 0.2 µg/mL | 0.2 µg/mL | > 100 µg/mL | 0.2 µg/mL | 0.05 µg/mL | ≤ 0.005 µg/mL | 0.02 µg/mL | 0.01 µg/mL | 50 µg/mL | 0.2 µg/mL | 0.02 µg/mL | 0.05 µg/mL | > 100 µg/mL | 0.39 µg/mL | > 100 µg/mL | > 100 µg/mL | MIC (organism code UU): 1.56 µg/mL; MIC (organism code VV): 0.2 µg/mL; MIC (organism code WW): 2 µg/mL; MIC (organism code XX): ≤ 0.004 µg/mL; MIC (organism code YY): ≤ 0.004 µg/mL; MIC (organism code ZZ): > 128 µg/mL; MIC (organism code ZZA): 0.125 µg/mL |
| CC[C@H]1OC(=O)[C@H](C)C(=O)[C@H](C)[C@@H](O[C@@H]2O[C@H](C)C[C@H](N(C)C)[C@H]2O)[C@@](C)(OCC=NOCc2ccc([N+](=O)[O-])cc2)C[C@@H](C)C(=O)[C@H](C)[C@H]2NC(=O)O[C@@]21C [Example 230, Compound of Formula (IX): L is CO, T is NH, R is —CH2CH═NOCH2(4-NO2-phenyl)] | 0.1 µg/mL | 0.1 µg/mL | > 100 µg/mL | 0.1 µg/mL | 0.1 µg/mL | 0.2 µg/mL | > 100 µg/mL | 0.1 µg/mL | 0.05 µg/mL | ≤ 0.005 µg/mL | ≤ 0.005 µg/mL | ≤ 0.005 µg/mL | > 100 µg/mL | 0.05 µg/mL | 0.05 µg/mL | 0.2 µg/mL | 100 µg/mL | 0.39 µg/mL | > 100 µg/mL | > 100 µg/mL | MIC (organism code UU): 0.78 µg/mL; MIC (organism code VV): 0.05 µg/mL; MIC (organism code WW): 2 µg/mL; MIC (organism code XX): 0.03 µg/mL; MIC (organism code YY): 0.015 µg/mL; MIC (organism code ZZ): 128 µg/mL; MIC (organism code ZZA): 0.25 µg/mL |
| CC[C@H]1OC(=O)[C@H](C)C(=O)[C@H](C)[C@@H](O[C@@H]2O[C@H](C)C[C@H](N(C)C)[C@H]2O)[C@@](C)(OCC=NOCc2ccnc3ccccc23)C[C@@H](C)C(=O)[C@H](C)[C@H]2NC(=O)O[C@@]21C [Example 231, Compound of Formula (IX): L is CO, T is NH, R is —CH2CH═NOCH2(4-quinolyl)] | 0.1 µg/mL | 0.1 µg/mL | > 100 µg/mL | 0.1 µg/mL | 0.1 µg/mL | 0.05 µg/mL | > 100 µg/mL | 0.2 µg/mL | 0.02 µg/mL | 0.02 µg/mL | 0.02 µg/mL | 0.02 µg/mL | 100 µg/mL | 0.1 µg/mL | 0.02 µg/mL | 0.1 µg/mL | 100 µg/mL | 0.39 µg/mL | 100 µg/mL | > 100 µg/mL | MIC (organism code UU): 0.78 µg/mL; MIC (organism code VV): 0.05 µg/mL; MIC (organism code WW): 2 µg/mL; MIC (organism code XX): 0.03 µg/mL; MIC (organism code YY): 0.03 µg/mL; MIC (organism code ZZ): > 128 µg/mL; MIC (organism code ZZA): 0.5 µg/mL |
| CC[C@H]1OC(=O)[C@H](C)C(=O)[C@H](C)[C@@H](O[C@@H]2O[C@H](C)C[C@H](N(C)C)[C@H]2O)[C@@](C)(OCC=NOCc2ccc3ccccc3n2)C[C@@H](C)C(=O)[C@H](C)[C@H]2NC(=O)O[C@@]21C [Example 232, Compound of Formula (IX): L is CO, T is NH, R is —CH2CH═NOCH2(2-quinolyl)] | 0.1 µg/mL | 0.1 µg/mL | > 100 µg/mL | 0.2 µg/mL | 0.2 µg/mL | 0.1 µg/mL | > 100 µg/mL | 0.2 µg/mL | 0.02 µg/mL | 0.02 µg/mL | 0.02 µg/mL | 0.02 µg/mL | > 100 µg/mL | 0.2 µg/mL | 0.02 µg/mL | 0.2 µg/mL | 25 µg/mL | 0.39 µg/mL | > 100 µg/mL | > 100 µg/mL | MIC (organism code UU): 0.39 µg/mL; MIC (organism code VV): 0.05 µg/mL; MIC (organism code WW): 2 µg/mL; MIC (organism code XX): 0.03 µg/mL; MIC (organism code YY): 0.03 µg/mL; MIC (organism code ZZ): > 128 µg/mL; MIC (organism code ZZA): 0.5 µg/mL |
| CC[C@H]1OC(=O)[C@H](C)C(=O)[C@H](C)[C@@H](O[C@@H]2O[C@H](C)C[C@H](N(C)C)[C@H]2O)[C@@](C)(OCC=NOCc2cnc3ccccc3c2)C[C@@H](C)C(=O)[C@H](C)[C@H]2NC(=O)O[C@@]21C [Example 233, Compound of Formula (IX): L is CO, T is NH, R is —CH2CH═NOCH2(3-quinolyl)] | 0.1 µg/mL | 0.1 µg/mL | > 100 µg/mL | 0.2 µg/mL | 0.2 µg/mL | 0.1 µg/mL | > 100 µg/mL | 0.2 µg/mL | 0.05 µg/mL | 0.02 µg/mL | 0.02 µg/mL | 0.02 µg/mL | 100 µg/mL | 0.1 µg/mL | 0.02 µg/mL | 0.3 µg/mL | 50 µg/mL | 0.39 µg/mL | 50 µg/mL | > 100 µg/mL | MIC (organism code UU): 0.78 µg/mL; MIC (organism code VV): 0.05 µg/mL; MIC (organism code WW): 2 µg/mL; MIC (organism code XX): 0.03 µg/mL; MIC (organism code YY): 0.03 µg/mL; MIC (organism code ZZ): 64 µg/mL; MIC (organism code ZZA): 0.25 µg/mL |
